Experiment [1] concerns JAK1 pathway (P-STAT6 in TF-1 human erythroleukemia cells + IL-13). The experiment in a line: P-STAT6 TF-1+Interleukin-13 (IL-13) assay. The format is cell-based. The following applies: TF-1 cells, 30 minutes compound, IL-13 10 minutes, IC50 by four-parameter fit, read-out: Cellular PSTAT6 TF-1 + IL13. The protocol:
(§1) TF-1 human erythroleukemia cells (ATCC®; Manassas, VA; Catalog No. CRL-2003™) were grown in Roswell Park Memorial Institute (RPMI) medium supplemented with 10% heat-inactivated fetal bovine serum (FBS), 2 ng/mL granulocyte-macrophage colony-stimulating factor, 1× non-essential amino acids (NEAA), and 1 mM sodium pyruvate. The day before the assay, the cultures were transferred to Opti-MEM™, 1×NEAA, 1 mM sodium pyruvate, and 0.5% charcoal-stripped FBS (starve medium). Inhibitor stock solutions (5 mM in DMSO) were serially diluted 1:2 in DMSO to generate a 10-point concentration titration (at 500× test concentration), which was further diluted by a 50-fold dilution in Assay Medium (RPMI containing 1×NEAA and 1 mM sodium pyruvate) to generate a 10× concentration titration (in 2% DMSO). The cells (300,000 cells/well in 35 μL of Assay Medium) were seeded in 384-well Greiner plates. Diluted inhibitor at 10× concentration (5 μL) was added to the cells and the plates were incubated for 30 minutes at 37° C. in a humidified incubator. Cells were stimulated with the human recombinant cytokine at the respective EC90 concentrations, as previously determined for each individual lot. For the phosphorylated signal transducer and activator of transcription 6 (P-STAT6) TF-1+Interleukin-13 (IL-13) assay, 10 μL of 250 ng/mL IL-13 (R&D Systems; Minneapolis, MN) was added to the cells, which were then incubated for 10 minutes at 37° C. For the P-STAT5 TF-1+Erythropoietin (EPO) assay, 10 μL of 110 IU/mL EPO (Gibco Life Technologies, Catalog No. PHC2054) was added to the cells, which were then incubated for 30 min at 37° C. For both assays, the incubation was followed by addition to the cells of 5 μL of ice-cold 10× cell lysis buffer (Cell Signaling Technologies; Danvers, MA; Catalog No. 9803S) containing 1 mM phenylmethylsulfonyl fluoride (PMSF). Assay plates were frozen at −80° C. for a minimum of 1 hour. In the IL-13 assay, P-STAT6 was measured by coating goat anti-rabbit (GAR) plates (Meso Scale Discovery [MSD]; Rockville, MD; Catalog No. MSD L21RA-1) with rabbit anti-human total STAT6 antibody (Cell Signaling Technologies; Catalog No. 9362S), incubating the cell lysates in the coated plates overnight at 4° C., and then detecting with mouse anti-P-STAT6 (Tyr641) Clone 16E12 antibody (MilliporeSigma; Burlington, MA; Catalog No. 05-590, custom labeled by MSD with SULFO-tag) using standard MSD plate processing, washing, and detection protocols. In the EPO assay, P-STAT5 was detected using the phospho-STAT5a,b Whole Cell Lysate Kit (MSD; Catalog No. K150IGD-1). The electrochemiluminescence (ECL) signal of wells was read on the MESO SECTOR S600 (MSD) reader.
(§2) Data analysis was performed by subtracting the negative control (cytokine stimulated and 20 μM control inhibitor-treated cells) mean ECL value from the ECL value of all wells, determining percent of control for test compound well ECL values relative to the positive control (cytokine stimulated and DMSO-treated cells) mean ECL value, and determining the IC50 for test compounds with a four-parameter logistic fit model as shown in Equation 4.

In experiment [2] the test system is JAK2 pathway (P-STAT5 in TF-1 human erythroleukemia cells + EPO). The experiment in a line: P-STAT5 TF-1+Erythropoietin (EPO) assay. The format is cell-based. The following applies: TF-1 cells, 30 minutes compound, EPO 30 min, IC50 by four-parameter fit, read-out: Cellular (JAK2 PSTAT5 TF1 + EPO). The protocol: as §1, §2

From patent US12247032B2, “Substituted pyrazolo[1,5-a]pyrimidines as inhibitors of JAK kinases” (Genentech, Inc., priority 2019, dated 2025) come the findings set out here.

Like-named read-outs stand apart in the source and are kept apart here.

In the case of `O=C(Nc1cn(Cc2nnn(C3CCNC3)n2)nc1-c1cc(OC(F)F)ccc1OC(F)F)c1cnn2cccnc12` (single isomer, unassigned) [Example 27, N-[3-[2,5-bis(difluoromethoxy)phenyl]-1-[(2-pyrrolidin-3-yltetrazol-5-yl)methyl]pyrazol-4-yl]pyrazolo[1,5-a]pyrimidine-3-carboxamide], the IC50 in experiment [1] (Homo sapiens, TF-1, 0.5 h) turned out to be 13 nM; in experiment [2] (Homo sapiens, TF-1, 0.5 h), 17 nM.
For the compound `O=C(Nc1cn(Cc2nnn(C3CCNC3)n2)nc1-c1cc(OC(F)F)ccc1OC(F)F)c1cnn2cccnc12` (single isomer, unassigned) [Example 28, N-[3-[2,5-bis(difluoromethoxy)phenyl]-1-[(2-pyrrolidin-3-yltetrazol-5-yl)methyl]pyrazol-4-yl]pyrazolo[1,5-a]pyrimidine-3-carboxamide], the results for the IC50 in experiment [1] and in experiment [2] were 7.1 nM and 19 nM, respectively.
On to `CN1CCC(N2CC(n3nnc(Cn4cc(NC(=O)c5cnn6cccnc56)c(-c5cc(OC(F)F)ccc5OC(F)F)n4)n3)C2)C1` (single isomer, unassigned) [Example 72, N-[3-[2,5-bis(difluoromethoxy)phenyl]-1-[[2-[1-(1-methylpyrrolidin-3-yl)azetidin-3-yl]tetrazol-5-yl]methyl]pyrazol-4-yl]pyrazolo[1,5-a]pyrimidine-3-carboxamide], for which the IC50 in experiment [1] (Homo sapiens, TF-1, 0.5 h) came out at 39 nM; in experiment [2] (Homo sapiens, TF-1, 0.5 h), 51 nM.
As to `CN1CC(n2nnc(Cn3cc(NC(=O)c4cnn5cccnc45)c(-c4cc(Cl)ccc4OC(F)F)n3)n2)C1` [Example 7, N-[3-[5-chloro-2-(difluoromethoxy)phenyl]-1-[[2-(1-methylazetidin-3-yl)tetrazol-5-yl]methyl]pyrazol-4-yl]pyrazolo[1,5-a]pyrimidine-3-carboxamide], the IC50 in experiment [1] (Homo sapiens, TF-1, 0.5 h) stood at 5 nM; in experiment [2] (Homo sapiens, TF-1, 0.5 h), 13 nM.
In the case of `O=C(Nc1cn(Cc2nnn(C3CNC3)n2)nc1-c1cc(Cl)ccc1OC(F)F)c1cnn2cccnc12` [Example 8, N-[1-[[2-(azetidin-3-yl)tetrazol-5-yl]methyl]-3-[5-chloro-2-(difluoromethoxy)phenyl]pyrazol-4-yl]pyrazolo[1,5-a]pyrimidine-3-carboxamide], the IC50 was 8.4 nM in experiment [1] (Homo sapiens, TF-1, 0.5 h) and 13 nM in experiment [2] (Homo sapiens, TF-1, 0.5 h).
As to `CN1CC(n2nnc(Cn3cc(NC(=O)c4cnn5cccnc45)c(-c4cc(OC(F)F)ccc4OC(F)F)n3)n2)C1` [Example 10, N-[3-[2,5-bis(difluoromethoxy)phenyl]-1-[[2-(1-methylazetidin-3-yl)tetrazol-5-yl]methyl]pyrazol-4-yl]pyrazolo[1,5-a]pyrimidine-3-carboxamide], the IC50 in experiment [1] (Homo sapiens, TF-1, 0.5 h) was found to be 4 nM; in experiment [2] (Homo sapiens, TF-1, 0.5 h) it was 5.1 nM.
Consider `O=C(Nc1cn(Cc2nnn(C3CNC3)n2)nc1-c1cc(OC(F)F)ccc1OC(F)F)c1cnn2cccnc12` [Example 11, N-[1-[[2-(azetidin-3-yl)tetrazol-5-yl]methyl]-3-[2,5-bis(difluoromethoxy)phenyl]pyrazol-4-yl]pyrazolo[1,5-a]pyrimidine-3-carboxamide], for which the IC50 in experiment [1] (Homo sapiens, TF-1, 0.5 h) amounted to 9.5 nM; in experiment [2] (Homo sapiens, TF-1, 0.5 h) it was 10 nM.
For the compound `O=C(Nc1cn(Cc2nnnn2C2CNC2)nc1-c1cc(OC(F)F)ccc1OC(F)F)c1cnn2cccnc12` [Example 12, N-[1-[[1-(azetidin-3-yl)tetrazol-5-yl]methyl]-3-[2,5-bis(difluoromethoxy)phenyl]pyrazol-4-yl]pyrazolo[1,5-a]pyrimidine-3-carboxamide], the IC50 was 22 nM in experiment [1] (Homo sapiens, TF-1, 0.5 h) and 51 nM in experiment [2] (Homo sapiens, TF-1, 0.5 h).
`NCCn1nnc(Cn2cc(NC(=O)c3cnn4cccnc34)c(-c3cc(OC(F)F)ccc3OC(F)F)n2)n1` [Example 13, N-[1-[[2-(2-aminoethyl)tetrazol-5-yl]methyl]-3-[2,5-bis(difluoromethoxy)phenyl]pyrazol-4-yl]pyrazolo[1,5-a]pyrimidine-3-carboxamide]: the IC50 is 18 nM in experiment [1] (Homo sapiens, TF-1, 0.5 h) and 10 nM in experiment [2] (Homo sapiens, TF-1, 0.5 h).
Turning to `NCCn1nnnc1Cn1cc(NC(=O)c2cnn3cccnc23)c(-c2cc(OC(F)F)ccc2OC(F)F)n1` [Example 14, N-[1-[[1-(2-aminoethyl)tetrazol-5-yl]methyl]-3-[2,5-bis(difluoromethoxy)phenyl]pyrazol-4-yl]pyrazolo[1,5-a]pyrimidine-3-carboxamide], the IC50 is 45 nM in experiment [1] (Homo sapiens, TF-1, 0.5 h) and 46 nM in experiment [2] (Homo sapiens, TF-1, 0.5 h).
In the case of `CN1CC(n2nnnc2Cn2cc(NC(=O)c3cnn4cccnc34)c(-c3cc(Cl)ccc3OC(F)F)n2)C1` [Example 15, N-[3-[5-chloro-2-(difluoromethoxy)phenyl]-1-[[1-(1-methylazetidin-3-yl)tetrazol-5-yl]methyl]pyrazol-4-yl]pyrazolo[1,5-a]pyrimidine-3-carboxamide], the IC50 in experiment [1] (Homo sapiens, TF-1, 0.5 h) was 3.4 nM; in experiment [2] (Homo sapiens, TF-1, 0.5 h) it was 7.2 nM.
In the case of `CN(C)CCn1nnc(Cn2cc(NC(=O)c3cnn4cccnc34)c(-c3cc(OC(F)F)ccc3OC(F)F)n2)n1` [Example 16, N-[3-[2,5-bis(difluoromethoxy)phenyl]-1-[[2-[2-(dimethylamino)ethyl]tetrazol-5-yl]methyl]pyrazol-4-yl]pyrazolo[1,5-a]pyrimidine-3-carboxamide], the IC50 amounted to 12 nM in experiment [1] (Homo sapiens, TF-1, 0.5 h) and 12 nM in experiment [2] (Homo sapiens, TF-1, 0.5 h).
Turning to `CN(C)CCn1nnnc1Cn1cc(NC(=O)c2cnn3cccnc23)c(-c2cc(OC(F)F)ccc2OC(F)F)n1` [Example 17, N-[3-[2,5-bis(difluoromethoxy)phenyl]-1-[[1-[2-(dimethylamino)ethyl]tetrazol-5-yl]methyl]pyrazol-4-yl]pyrazolo[1,5-a]pyrimidine-3-carboxamide], the IC50 stood at 2.7 nM in experiment [1] (Homo sapiens, TF-1, 0.5 h) and 9.7 nM in experiment [2] (Homo sapiens, TF-1, 0.5 h).
Taken in the same sequence, the figures for `O=C(Nc1cn(Cc2nnn(C3CCNCC3)n2)nc1-c1cc(OC(F)F)ccc1OC(F)F)c1cnn2cccnc12` [Example 18, N-[3-[2,5-bis(difluoromethoxy)phenyl]-1-[[2-(4-piperidyl)tetrazol-5-yl]methyl]pyrazol-4-yl]pyrazolo[1,5-a]pyrimidine-3-carboxamide] were 20 nM and 19 nM.
`CNCCn1nnnc1Cn1cc(NC(=O)c2cnn3cccnc23)c(-c2cc(OC(F)F)ccc2OC(F)F)n1` [Example 19, N-[3-[2,5-bis(difluoromethoxy)phenyl]-1-[[1-[2-(methylamino)ethyl]tetrazol-5-yl]methyl]pyrazol-4-yl]pyrazolo[1,5-a]pyrimidine-3-carboxamide]: the IC50 was 7 nM in experiment [1] (Homo sapiens, TF-1, 0.5 h) and 21 nM in experiment [2] (Homo sapiens, TF-1, 0.5 h).
For the compound `CNCCn1nnc(Cn2cc(NC(=O)c3cnn4cccnc34)c(-c3cc(OC(F)F)ccc3OC(F)F)n2)n1` [Example 20, N-[3-[2,5-bis(difluoromethoxy)phenyl]-1-[[2-[2-(methylamino)ethyl]tetrazol-5-yl]methyl]pyrazol-4-yl]pyrazolo[1,5-a]pyrimidine-3-carboxamide], the IC50 amounted to 45 nM in experiment [1] (Homo sapiens, TF-1, 0.5 h) and 15 nM in experiment [2] (Homo sapiens, TF-1, 0.5 h).
Take `CN(C)CCN1CC(n2nnc(Cn3cc(NC(=O)c4cnn5cccnc45)c(-c4cc(OC(F)F)ccc4OC(F)F)n3)n2)C1` [Example 21, N-[3-[2,5-bis(difluoromethoxy)phenyl]-1-[[2-[1-[2-(dimethylamino)ethyl]azetidin-3-yl]tetrazol-5-yl]methyl]pyrazol-4-yl]pyrazolo[1,5-a]pyrimidine-3-carboxamide]: the IC50 in experiment [1] (Homo sapiens, TF-1, 0.5 h) came to 40 nM; in experiment [2] (Homo sapiens, TF-1, 0.5 h), 32 nM.
Turning to `CN1CCC(n2nnc(Cn3cc(NC(=O)c4cnn5cccnc45)c(-c4cc(OC(F)F)ccc4OC(F)F)n3)n2)CC1` [Example 22], the IC50 in experiment [1] (Homo sapiens, TF-1, 0.5 h) was found to be 4.8 nM; in experiment [2] (Homo sapiens, TF-1, 0.5 h), 18 nM.
